Reference: ChEMBL document CHEMBL1151611, “Antimicrobial principles from in vitro tissue culture of Peganum harmala” (J Nat Prod, 1984)
Calls of active or inactive are those of the source. The calls are words filed in the database; no cut-off is given here.

How the values were obtained:
Assay type in all cases: functional, organism-based
[1] = tested on: Staphylococcus aureus; test: Antimicrobial activity against Staphylococcus aureus
[2] = tested on: Escherichia coli; test: Antimicrobial activity against Escherichia coli
[3] = tested on: Candida albicans; test: Antimicrobial activity against Candida albicans

SMILES | Activity [1] | Activity [2] | Activity [3]
O=c1c(O)c(-c2ccc(O)c(O)c2)oc2cc(O)cc(O)c12 | Active | Active | inactive
O=c1c(O)c(-c2ccc(O)cc2)oc2cc(O)cc(O)c12 | Active | Active | Active
